# Experimental data reported in patent US6723364B1, “Fog treatment method using a liquid composition for treating fruits and vegetables and implementing device” (Xeda International, priority 1998, dated 2004).
# Read-outs that look alike come from different tables or passages of the source.
# Legend:
# Type in all cases: cell-based
# Alternaria alternata = experiment: Germination of the spores in vitro; conditions: AA;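 note: ++ germination like control and 0 no spores germinated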
# Description: (§1) The activity of eugenol and of isoeugenol on the germination of the spores was evaluated in vitro and compared with that of other terpenes.
# (§2) The procedure of Example 4 is used to do this, except that the concentration of eugenol and of isoeugenol was set at x μg/ml in the culture media used and that 50 μl of a suspension of spores, adjusted to 100,000 spores/ml, are deposited in each Petri dish.
# (§3) The same experiment was carried out starting with a terpene-free culture medium (control test).
# (§4) The results were evaluated using the following assessment criteria:
# (§5) +: considerable reduction in the level of spores germinated
# (§6) The results obtained for 3 different concentrations of terpenes in the culture medium, namely 40 μg/ml, 80 μg/ml and 1280 μg/ml, are listed in Tables 4, 5 and 6.
# Botrytis cinerea = experiment: Germination of the spores in vitro; conditions: BC
# Description: as §1, §2, §3, §4, §5, §6
# Fusarium oxysporum = experiment: Germination of the spores in vitro; conditions: FO;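 note: ++ germination like control and 0 no spores germinated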
# Description: as §1, §2, §3, §4, §5, §6
# Geocrichum candidum = experiment: Germination of the spores in vitro; conditions: GC
# Description: as §1, §2, §3, §4, §5, §6
# Penicillium digitatum = experiment: Germination of the spores in vitro; conditions: PD
# Description: as §1, §2, §3, §4, §5, §6
# Penicillium expansum = experiment: Germination of the spores in vitro; conditions: PE;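 note: ++ germination like control and 0 no spores germinated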
# Description: as §1, §2, §3, §4, §5, §6
# [1] = system: Phlyctaena vagabonda (“Gloeosporium”); experiment: Germination of the spores in vitro; conditions: PV;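 note: ++ germination like control and 0 no spores germinated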
# Description: as §1, §2, §3, §4, §5, §6
# Phytophtora parasitica = experiment: Germination of the spores in vitro; conditions: PhP
# Description: as §1, §2, §3, §4, §5, §6
# spores = experiment: Germination of the spores in vitro, summary over the fungi tested; conditions: summary of Tables 4 to 6
# Description: as §1, §2, §3, §6
# A concentration of 40 μg/ml is sufficient to inhibit the germination of the spores.
# Erwinia carotovora = experiment: Bactericidal activity in vitro in LB agar medium; conditions: for MIC: Pectobacterium carotovorum, read-out: MIC (concentration needed to completely inhibit the growth of the bacteria)
# Description: The bactericidal activity of eugenol and isoeugenol was evaluated in vitro and compared with that of other terpenes.
# The culture medium used is the following LB medium:
# Bactotryptone: 1% by weight
# Yeast extract: 0.5% by weight
# A suspension of bacteria at 10^6 CFU/ml was prepared in sterilized water from the LB medium. 200 μl of this bacterial suspension were added to 20 ml of presterilized LB culture medium brought to 55° C. The tested terpene is then added to the culture medium. After agitation, the medium is immediately divided among Petri dishes. The medium solidifies on cooling.
# Incubation is carried out at 28° C. when the bacterium is Erwinia carotovora and at 37° C. when the bacterium is Escherichia coli.
# The growth of mould in the culture medium is observed. The same experiment is carried out in the absence of terpene (control experiment).
# The results are evaluated using the following assessment scale:
# ++: mould growth identical to the control
# +: mould present with a marked reduction in growth with respect to the control
# : complete absence of growth.
# The results obtained for 3 different concentrations, namely 20, 80 and 320 μg/ml, in the case of the bacterium Erwinia carotovora are summarized in Table 7.
# The protocol used is that described above.
# [2] = Concentration 320 μg/ml, 28° C.
SMILES,germination of the spores (Alternaria alternata; x = 40 μg/ml),germination of the spores (Alternaria alternata; x = 80 μg/ml),germination of the spores (Alternaria alternata; x = 1280 μg/ml),germination of the spores (Botrytis cinerea; x = 40 μg/ml),germination of the spores (Botrytis cinerea; x = 80 μg/ml),germination of the spores (Botrytis cinerea; x = 1280 μg/ml),germination of the spores (Fusarium oxysporum; x = 40 μg/ml),germination of the spores (Fusarium oxysporum; x = 80 μg/ml),germination of the spores (Fusarium oxysporum; x = 1280 μg/ml),germination of the spores (Geocrichum candidum; x = 40 μg/ml),germination of the spores (Geocrichum candidum; x = 80 μg/ml),germination of the spores (Geocrichum candidum; x = 1280 μg/ml),germination of the spores (Penicillium digitatum; x = 40 μg/ml),germination of the spores (Penicillium digitatum; x = 80 μg/ml),germination of the spores (Penicillium digitatum; x = 1280 μg/ml),germination of the spores (Penicillium expansum; x = 40 μg/ml),germination of the spores (Penicillium expansum; x = 80 μg/ml),germination of the spores (Penicillium expansum; x = 1280 μg/ml),germination of the spores ([1]; x = 40 μg/ml),germination of the spores ([1]; x = 80 μg/ml),also measured
"CC=Cc1ccc(O)c(OC)c1 [ISOEUGENOL, isoeugenol]",0,0,0,++,0,0,0,0,0,0,0,0,0,0,0,0,0,0,0,0,"germination of the spores ([1]; x = 1280 μg/ml): 0; germination of the spores (Phytophtora parasitica; x = 40 μg/ml): 0; germination of the spores (Phytophtora parasitica; x = 80 μg/ml): 0; germination of the spores (Phytophtora parasitica; x = 1280 μg/ml): 0; concentration sufficient to inhibit the germination of the spores (spores): 40 µg/mL; growth in the culture medium with respect to the control (Erwinia carotovora; Concentration 20 μg/ml, 28° C.): +; growth in the culture medium with respect to the control (Erwinia carotovora; Concentration 80 μg/ml, 28° C.): −; growth in the culture medium with respect to the control (Erwinia carotovora; [2]): −; MIC (Erwinia carotovora; Erwinia sp., 28° C.): 20 to 40 µg/mL"
"CC12CCC(CC1)C(C)(C)O2 [EUCALYPTOL, eucalyptol]",++,++,0,++,++,0,++,++,0,++,+,0,+,+,+,+,+,+,++,+,"germination of the spores ([1]; x = 1280 μg/ml): 0; germination of the spores (Phytophtora parasitica; x = 40 μg/ml): ++; germination of the spores (Phytophtora parasitica; x = 80 μg/ml): +; germination of the spores (Phytophtora parasitica; x = 1280 μg/ml): 0; growth in the culture medium with respect to the control (Erwinia carotovora; Concentration 20 μg/ml, 28° C.): ++; growth in the culture medium with respect to the control (Erwinia carotovora; Concentration 80 μg/ml, 28° C.): ++; growth in the culture medium with respect to the control (Erwinia carotovora; [2]): ++; MIC (Erwinia carotovora; Erwinia sp., 28° C.): 320 to 640 µg/mL"
"C=CCc1ccc2c(c1)OCO2 [SAFROLE, safrole]",++,+,0,+,0,0,++,+,0,++,+,0,+,+,0,+,+,+,+,+,"germination of the spores ([1]; x = 1280 μg/ml): 0; germination of the spores (Phytophtora parasitica; x = 40 μg/ml): 0; germination of the spores (Phytophtora parasitica; x = 80 μg/ml): 0; germination of the spores (Phytophtora parasitica; x = 1280 μg/ml): 0; growth in the culture medium with respect to the control (Erwinia carotovora; Concentration 20 μg/ml, 28° C.): ++; growth in the culture medium with respect to the control (Erwinia carotovora; Concentration 80 μg/ml, 28° C.): ++; growth in the culture medium with respect to the control (Erwinia carotovora; [2]): +; MIC (Erwinia carotovora): 320 to 640 µg/mL"
"C=CCc1ccc(O)c(OC)c1 [EUGENOL, eugenol]",0,0,0,0,0,0,0,0,0,0,0,0,0,0,0,0,0,0,0,0,"germination of the spores ([1]; x = 1280 μg/ml): 0; germination of the spores (Phytophtora parasitica; x = 40 μg/ml): 0; germination of the spores (Phytophtora parasitica; x = 80 μg/ml): 0; germination of the spores (Phytophtora parasitica; x = 1280 μg/ml): 0; concentration sufficient to inhibit the germination of the spores (spores): 40 µg/mL; growth in the culture medium with respect to the control (Erwinia carotovora; Concentration 20 μg/ml, 28° C.): +; growth in the culture medium with respect to the control (Erwinia carotovora; Concentration 80 μg/ml, 28° C.): −; growth in the culture medium with respect to the control (Erwinia carotovora; [2]): −; MIC (Erwinia carotovora; Erwinia sp., 28° C.): 20 to 40 µg/mL"
"C=C(C)C1CC=C(C)C(=O)C1 (stereo not shown) [CARVONE, carvone]",+,0,0,+,0,0,+,0,0,+,0,0,+,0,0,+,0,0,+,0,"germination of the spores ([1]; x = 1280 μg/ml): 0; germination of the spores (Phytophtora parasitica; x = 40 μg/ml): 0; germination of the spores (Phytophtora parasitica; x = 80 μg/ml): 0; germination of the spores (Phytophtora parasitica; x = 1280 μg/ml): 0; growth in the culture medium with respect to the control (Erwinia carotovora; Concentration 20 μg/ml, 28° C.): ++; growth in the culture medium with respect to the control (Erwinia carotovora; Concentration 80 μg/ml, 28° C.): +; growth in the culture medium with respect to the control (Erwinia carotovora; [2]): −; MIC (Erwinia carotovora; Erwinia sp., 28° C.): 80 to 160 µg/mL"
